Measured values reported in ChEMBL document CHEMBL4002605, “Synthesis, identification and in vitro biological evaluation of some novel quinoline incorporated 1,3-thiazinan-4-one derivatives” (Bioorg Med Chem Lett, 2017).
In brackets after ≈: the same amount, converted by molar mass.

Assays:
[1] = test system: Streptococcus pneumoniae; assay: Antibacterial activity against Streptococcus pneumoniae MTCC 1936 by broth microdilution assay method; type: functional
[2] = test system: Bacillus subtilis; assay: Antibacterial activity against Bacillus subtilis MTCC 441 by broth microdilution assay method; type: functional
[3] = test system: Clostridium tetani; assay: Antibacterial activity against Clostridium tetani MTCC 449 by broth microdilution assay method; type: functional
[4] = test system: Escherichia coli; assay: Antibacterial activity against Escherichia coli MTCC 443 by broth microdilution assay method; type: functional
[5] = test system: Salmonella typhi; assay: Antibacterial activity against Salmonella typhi MTCC 98 by broth microdilution assay method; type: functional, Salmonella enterica subsp. enterica serovar Typhi; conditions: Salmonella enterica
[6] = test system: Vibrio cholerae; assay: Antibacterial activity against Vibrio cholerae MTCC 3906 by broth microdilution assay method; type: functional
[7] = test system: Mycobacterium tuberculosis; assay: Antitubercular activity against Mycobacterium tuberculosis H37Rv at 6 ug/mL; type: functional
[8] = test system: Plasmodium falciparum; assay: Antimalarial activity against Plasmodium falciparum; type: functional

Row | SMILES | MIC [1] [µg/mL] | MIC [2] [µg/mL] | MIC [3] [µg/mL] | MIC [4] [µg/mL] | MIC [5] [µg/mL] | MIC [6] [µg/mL] | inhibition at 6 µg/mL [7] [%] | IC50 [8] [µg/mL]
1 | O=C1CCSC(c2ccc(Cl)cc2)N1CCNc1ccnc2cc(Cl)ccc12 (centres undefined) | 125 (≈ 289 µM) | 62.5 (≈ 145 µM) | 62.5 (≈ 145 µM) | 125 (≈ 289 µM) | 250 (≈ 578 µM) | 125 (≈ 289 µM) | 73 | 0.098 (≈ 0.227 µM)
2 | COc1ccc(C2SCCC(=O)N2CCNc2ccnc3cc(Cl)ccc23)cc1 (centres undefined) | 250 (≈ 584 µM) | 250 (≈ 584 µM) | 125 (≈ 292 µM) | 125 (≈ 292 µM) | 250 (≈ 584 µM) | 250 (≈ 584 µM) | 60 | 0.62 (≈ 1.45 µM)
3 | Cc1ccc(C2SCCC(=O)N2CCNc2ccnc3cc(Cl)ccc23)cc1 (centres undefined) | 500 (≈ 1210 µM) | 250 (≈ 607 µM) | 250 (≈ 607 µM) | 250 (≈ 607 µM) | 500 (≈ 1210 µM) | 250 (≈ 607 µM) | 57 | 1.97 (≈ 4.78 µM)
4 | O=C(NN1C(=O)CCSC1c1cccc(F)c1)c1cnc2c(C(F)(F)F)cccc2c1O (centres undefined) | 250 (≈ 537 µM) | 125 (≈ 269 µM) | 125 (≈ 269 µM) | 125 (≈ 269 µM) | 250 (≈ 537 µM) | 125 (≈ 269 µM) | 73 | 0.91 (≈ 1.96 µM)
5 | O=C1CCSC(c2ccc(F)cc2)N1CCNc1ccnc2cc(Cl)ccc12 (centres undefined) | 62.5 (≈ 150 µM) | 62.5 (≈ 150 µM) | 15.6 (≈ 37.5 µM) | 62.5 (≈ 150 µM) | 62.5 (≈ 150 µM) | 125 (≈ 301 µM) | 80 | 0.081 (≈ 0.195 µM)
6 | O=C(NN1C(=O)CCSC1c1ccccc1)c1cnc2c(C(F)(F)F)cccc2c1O (centres undefined) | 500 (≈ 1120 µM) | 250 (≈ 559 µM) | 500 (≈ 1120 µM) | 500 (≈ 1120 µM) | 500 (≈ 1120 µM) | 500 (≈ 1120 µM) | 55 | 2.1 (≈ 4.69 µM)
7 | O=C1CCSC(c2ccccc2)N1CCNc1ccnc2cc(Cl)ccc12 (centres undefined) | 500 (≈ 1260 µM) | 250 (≈ 628 µM) | 250 (≈ 628 µM) | 500 (≈ 1260 µM) | 500 (≈ 1260 µM) | 250 (≈ 628 µM) | 50 | 2.7 (≈ 6.79 µM)
8 | O=C1CCSC(c2ccc(Br)cc2)N1CCNc1ccnc2cc(Cl)ccc12 (centres undefined) | 62.5 (≈ 131 µM) | 31.2 (≈ 65.5 µM) | 31.2 (≈ 65.5 µM) | 125 (≈ 262 µM) | 100 (≈ 210 µM) | 31.2 (≈ 65.5 µM) | 95 | 0.045 (≈ 0.0944 µM)
